The values that follow come from US6420121B1, “Prevention of cell migration initiation with CMV US28 receptor antagonists” (Oregon Health Sciences University, priority 1998, dated 2002).

One test relates to HCMV infected SMCs. Nature of the test: HCMV-induced SMC migration assay (migration chamber). In kind it is cell-based. To be noted: for inhibition of HCMV-induced SMC migration: SMCs infected with HCMV, FIG. 7 and FIG. 9. From the text:
The present invention provides an assay for determining therapeutic activity of US28 receptor antagonists, comprising (a) obtaining and isolating smooth muscle cells into a first chamber of a migration device, wherein the first migration chamber comprises growth media chambers and is defined by a first side of a membrane and chamber walls, and wherein the migration device comprises a second chamber defined by the second side of the membrane and having an enclosed space; (b) infecting the smooth muscle cells with human cytomegalovirus (HCVM) containing a gene encoding the US28 receptor; (c) adding a candidate therapeutic agent to the first chamber; and (d) determining the amount of cellular migration into the second chamber, whereby inhibition of cellular migration of infected smooth muscle cells indicates therapeutic activity. Preferably, the smooth muscle cells are isolated from pulmonary arteries. Preferably, the membrane has a pore size of from about 2 to about 10 microns. Most preferably, the membrane pore size is about 3 microns. Preferably the amount of cellular migration is determined by an assay for counting the number of smooth muscle cells in the second chamber wherein the assay for counting the number of smooth muscle cells is selected from the group consisting of microscopic cell counting per unit area, radiolabeling the smooth muscle cells and counting radioactivity in the second chamber, attaching a fluorescent probe to the smooth muscle cells and measuring fluorescence within the second chamber, and combinations thereof.
SMCs are cultured in the upper chamber and infected with HCMV (preferably at or near MOI11). Only cells that are infected will migrate through a filter (preferably 3 micron) to the lower chamber. The cells in the lower chamber are counted by microscopy or labeled with a radioactive or fluorescent label.
The present invention provides an assay for determining therapeutic activity of US28 receptor antagonists, comprising (a) obtaining and isolating smooth muscle cells into a first chamber of a migration device, wherein the first migration chamber comprises growth media chambers and is defined by a first side of a membrane and chamber walls, and wherein the migration device comprises a second chamber defined by the second side of the membrane and having an enclosed space; (b) infecting the smooth muscle cells with human cytomegalovirus (HCVM) containing a gene encoding the US28 receptor; (c) adding a candidate therapeutic agent to the first chamber; and (d) determining the amount of cellular migration into the second chamber, whereby inhibition of cellular migration of infected smooth muscle cells indicates therapeutic activity. Preferably, the smooth muscle cells are isolated from pulmonary arteries. […]

Test [1] deals with US28 transfected smooth muscle cell. As to the kind of experiment: US28 SMC migration with PTK pathway inhibitors (FIG. 15). Format: cell-based.

“Also recorded” adds a separate entry of the source.

Consider PDGF, for which the “induction of cell migration in SMCs” value in the test with HCMV infected SMCs (SMCs treated with PDGF, compared with HCMV infection, FIG. 7) was “did not cause cell migration in SMCs to nearly the extent as HCMV infection”. Regarding `CO[C@H]1[C@@H](OC)C[C@H](C)[C@@H](OC)C2=CC(=O)C=C(NC(=O)/C(C)=C/C=C\[C@H](OC)[C@@H](OC(N)=O)/C(C)=C/[C@@H]1C)C2=O` [herbimycin A, Herbimycin A], the “inhibition of US28 SMC migration” value in test [1] is listed as “effective in inhibiting US28 transfected smooth muscle cell migration”. As for Pertussis toxin, the “inhibition of US28 SMC migration” value in test [1] was “had no effect”.

Consider `C[C@@H]1C[C@@H]([C@H](O)CC2CC(=O)NC(=O)C2)C(=O)[C@@H](C)C1` [cyclohexamide], for which, in the test with HCMV infected SMCs, the “inhibition of HCMV-induced SMC migration” value is “blocked”. Still for that read-out and setting: to `O=C(O)P(=O)(O)O` [foscarnet] belongs “did not inhibit SMC migration; also recorded: did not inhibit migration of infected smooth muscle cells”.

B1: RANTES: C-C chemokine, US28 receptor ligand (protein, UniProt P13501 24-91, looked up)
C-C motif chemokine 5: SPYSSDTTPCCFAYIARPLPRAHIKEYFYTSGKCSNPAVVFVTRKNRQVCANPEKKWVREYINSLEMS
Regarding B1, in the test on HCMV infected SMCs (HCMV-GFP-infected SMCs, FIG. 12), the “SMC migration on addition of chemokine” value is on record as “increased SMC migration in a dose-dependent manner”.
